Assay results: PubChem BioAssay AID1508612

Assay: passive permeability, PAMPA, ADME assay (AID 1508612)
Details: pH 7.4, 30.0 min, 50.0 µM

| Compound | Papp [×10⁻⁶ cm/s] |
| --- | --- |
| O=c1[nH]c(N2CCOCC2)nc2c1CCN(Cc1ccc(Cl)cc1F)CC2 | > 1000 |
| COc1cccc(CC(=O)Nc2nc(-c3ccc4c(c3)CCN4C(=O)c3ccccc3C)c(C)s2)c1 | 674 |
| O=C(Nc1cn[nH]c1-c1nc2ccc(CN3CCOCC3)cc2[nH]1)NC1CC1 | 5.07 |
| NCC(=O)Nc1cccc(-c2nn3c(=O)cc(N4CCNCC4)nc3s2)c1 | < 1 |
| Cc1ccc(-c2nnc(Nc3ccc(Br)cc3)c3ccccc23)cc1S(=O)(=O)N1CCN(C)CC1 | > 1000 |
| Fc1cc(Nc2nc(-c3ccncc3)nc3ccccc23)ccc1N1CCCC1 | 110 |
| Cc1cccc2nc(-c3cccnc3)c(Nc3ccc(C(C)C)cc3)n12 | > 1000 |
| CCN(CC)C(=O)c1coc(COc2ccc3c(c2)C(c2cccc(F)c2)N(C(=O)C(C)C)CC3)n1 (configuration not stated) | > 1000 |
| Cc1cccc2nc(-c3ccccn3)c(Nc3ccc(F)cc3)n12 | > 1000 |
| Cc1cc(NS(=O)(=O)c2ccc3c(c2)CCC(=O)N3)ccc1F | 412 |
| CC(C)Oc1ccc(-c2ccc(=O)n(CC(=O)NCCc3ccccc3)n2)cc1 | > 1000 |
| Cc1cccc(-n2cnc3cc(C(=O)N4CCCC(C)C4)ccc32)c1 (configuration not stated) | > 1000 |
| Cc1ccc(CN2C(=O)C(O)(CC(=O)c3ccc(C)cc3)c3ccccc32)cc1 (configuration not stated) | 802 |
| Cc1ccc(-c2nc(NCC(=O)Nc3cccc(C(=O)O)c3)c3ccccc3n2)cc1 | < 1 |
| Cc1ccc(-n2ncc3c(NCCCn4ccnc4)ncnc32)cc1Cl | > 1000 |
| COc1ccc(-c2nc3ccccc3c(=O)n2Cc2ccco2)cc1COc1ccc(NC(C)=O)cc1 | 8.72 |
| COc1ccc(-n2nc(C3CCN([S+](=O)([O-])c4c(C)noc4C)CC3)[nH]c2=O)cc1 | 403 |
| CCOC(=O)C1=C(C)NC(=O)CC1C(=O)Nc1cc(Cl)cc(Cl)c1 (configuration not stated) | 599 |
| COc1ccc2oc(NC3=NC(c4[nH]ncc4Cl)C4=C(CCCC4=O)N3)nc2c1 (configuration not stated) | 706 |
| O=C(Nc1ccc2c(N3CCOCC3)ncnc2c1)c1cccc(Br)c1 | > 1000 |
| COc1c(O)cc2c(c1OC)-c1ccc(SC)c(=O)cc1C(NC(C)=O)CC2 (configuration not stated) | 19.5 |
| C[C@@]1(O)[C@H](O)[C@@H](CO)O[C@H]1n1ccc(N)nc1=O | 9.97 |
| CC(=O)c1ccc(N[S+](=O)([O-])c2cccc(NC(=O)c3[nH]c(C)c(C(C)=O)c3C)c2)cc1 | < 1 |
| O=C(NCCO)c1cccc(-c2cc(Nc3ccc(OC(F)(F)F)cc3)ncn2)c1 | 472 |
| COc1ccc(OC)c(Nc2c3c(nc4ccccc24)CCC3)c1 | > 1000 |
| Cc1ccc(C)n1-c1cccc(C(=O)O)c1 | 34.6 |

| Compound | Papp [×10⁻⁶ cm/s] |
| --- | --- |
| COc1ccc(-n2nc(C3CCCN(C(=O)c4cccc(OC)c4)C3)[nH]c2=O)cc1 (configuration not stated) | 436 |
| c1ccc2[nH]c(Nc3nc(-c4ccncc4)nc4ccccc34)nc2c1 | > 1000 |
| Cn1nnnc1Sc1ncnc2scc(-c3ccc(F)cc3)c12 | 911 |
| C#CC1(O)CCC2C3CCC4=C/C(=N/OCC(=O)NCC(=O)NC(C(=O)O)C(C)C)CC[C@]4(C)C3CC[C@@]21C (some centres not stated) | 4.52 |
| O=C(Cc1ccc2ccccc2c1)Nc1ccc(S(=O)(=O)Nc2nccs2)cc1 | 16.9 |
| Fc1ccc(Nc2nccc(-c3ccncc3)n2)cc1F | > 1000 |
| Cn1cc2c3c(cccc31)CN(C(=O)c1ccc(F)c(Cl)c1)CC2 | > 1000 |
| COc1ccc(S(=O)(=O)N(CC(=O)Nc2ccc(C)cc2)c2ccc(C)cc2)cc1OC | > 1000 |
| CCCCNc1oc(-c2cccc3ccccc23)nc1C#N | 38 |
| CCC(C)N(C)C(=O)c1cc2ccccc2c(-c2ccccc2Cl)n1 (configuration not stated) | > 1000 |
| Cc1nc2ccc(Nc3nc(-c4ccncc4)nc4ccccc34)cc2s1 | 55.8 |
| CCCN1CNc2c(c(=O)[nH]c(=S)n2CCc2ccc(OC)c(OC)c2)C1 | 138 |
| COc1cccc(CNc2ccc(S(=O)(=O)Nc3cccnc3)cc2)c1O | 632 |
| Cc1ccnc(NC(=S)N2CC[C@@H](Nc3cccc(C(F)(F)F)c3)C2)c1 | > 1000 |
| COc1ccc(-n2nc(C3CCCN(C(=O)Nc4ccccc4)C3)[nH]c2=O)cc1 (configuration not stated) | 360 |
| COc1ccc(-n2c(C)cc(C3=NNC(=NC4CC4)SC3)c2C)cc1 | 610 |
| CCc1ccc(C2C(C(=O)Nc3ccccc3OC)=C(C)Nc3c(C(=O)Nc4ccc(C)cc4)cnn32)cc1 (configuration not stated) | 547 |
| CCOc1ccccc1N(CC(=O)Nc1cc(OC)ccc1OC)S(=O)(=O)c1ccccc1 | 968 |
| Cc1noc(C)c1-c1ccc2ncnc(NC(C)c3ccccc3)c2c1 (configuration not stated) | > 1000 |
| O=C(c1nc(-c2cccnc2)c2ccccn12)N1CCOCC1 | 206 |
| Cn1ccc2c(C(=O)NCc3cccnc3)nc(-c3ccc(CO)cc3)cc21 | 317 |
| Cc1ccc(C(=O)N2CCc3c(nc4cc(-c5ccccc5)[nH]n4c3=O)C2)cn1 | < 1 |
| CC1(C)CCC(CN2CCN(c3ccc(C(=O)NS(=O)(=O)c4ccc(NCC5CCOCC5)c([N+](=O)[O-])c4)c(Oc4cnc5[nH]ccc5c4)c3)CC2)=C(c2ccc(Cl)cc2)C1 | 1.5 |
| CCC(Sc1nc2ccccc2c2nc(CCc3c(C)n[nH]c3C)nn12)C(=O)Nc1ccc(F)cc1 (configuration not stated) | 37.9 |
| COCCNCc1ccc(-c2cc3nccc(Oc4ccc(NC(=S)NC(=O)Cc5ccc(F)cc5)cc4F)c3s2)nc1 | 361 |
| CN(C)c1cccc(-c2cnc(N3CCC(c4ncc[nH]4)CC3)s2)c1 | 955 |
